Data reported in patent US20220040255A1, “CHEMOTHERAPEUTIC REMODELING OF THE GUT MICROBIOME” (THE SCRIPPS RESEARCH INSTITUTE, priority 2018, published 2022).
Where a SMILES comes first, the peptide text is derived from it. [ ]: non-standard residue; d: D form.

Assays:
atherosclerotic lesions = experiment: analysis of atherosclerosis (whole aorta en face, aortic sinus); type: in vivo, LDLr−/− mice; conditions: completion of the 10-week study
Description: Analysis of atherosclerosis. Atherosclerotic lesion severity was assessed in the aortae as previously described. Briefly, at euthanasia, animals were perfused with PBS, followed by 4% formaldehyde (10% UltraPure EM Grade from Polysciences diluted in PBS, pH 7.2). For en face analysis, the entire mouse aorta was dissected from the proximal ascending aorta to the bifurcation of the iliac artery by using a dissecting microscope. Adventitial fat was removed, and the aorta was opened longitudinally, pinned flat onto black dissecting wax, stained with Sudan IV, and photographed at a fixed magnification. The photographs were digitized, and total aortic areas and lesion areas were calculated by using Adobe Photoshop and NIH Image J software. The results were reported as a percentage of the total aortic area that contained lesions.
As a second assessment of atherosclerosis, lesions of the aortic root (heart sinus) were analyzed^55. Utilizing stereological principles, lesion volume was estimated across a fixed distance of the aortic sinus. After 10 min fixation in 4% paraformaldehyde, hearts were cut at an angle perpendicular to the atria of the heart and embedded in OCT (Tissue-Tek). Frozen hearts were sectioned on a Leica cryostat, with 10-μm sections collected from the beginning of the aortic sinus (defined as when a valve leaflet became visible) to 500 μm below the beginning of the sinus. […] Sections were collected in duplicate at 50-μm intervals. Sections were stained with oil red O, counterstained with Gill hematoxylin 1 (Fischer Scientific International), photographed, and digitized for lesion analysis. Scoring of valve lesion areas was done for each of the 3 valve cusps individually. Lesion areas found only within the valve cusp were measured. […] Lesion volume was calculated from an integration of the measured cross-sectional areas. Prediction of the coefficient of error (CE) in approximating lesion volume was computed using the Cavalieri estimator derived from a covariogram analysis of an ordered set of estimates of cross-sectional areas. This yielded CE values of less than 10% that were acceptable for a stereological computation of lesion volume.

[1] = system: gut microbiota metabolites; experiment: fecal SCFA and amino acid measurements (LC-MS); type: in vivo, LDLr−/− mice
Description: SCFA and amino acid measurements. Fecal SCFA and amino acid content was measured by liquid chromatography-mass spectrometry (LC-MS). The fecal samples were weighed and placed into 2 ml Omni tubes. Ethanol was added to bring the volume to 350 μl. Next, 4 μl of 500 μM d-FA-mix and 20 μl of 1 mM 3CHPA were added to each sample as internal standard. The samples were homogenized using an Omni bead beater at the speed of 4.5 m/s for 30 sec, and then centrifuged at 13,000 rpm for 15 min. 90 μl of the supernatants was transferred into glass HPLC vials. 30 μl of freshly prepared 4×3NPH solution (160 mM 3-nitrophenylhydrazine, 150 mM EDC, pyridine 12% vol, 50% acetonitrile) was added to each sample and the reactions were held at room temperature for 30 min. 2 μl of the sample was injected into the LC-MS (Agilent 1290 HPLC, 6550 qTOF). The concentration of each SCFA and amino acid was calculated based on a standard curve and normalized by the internal control and the feces weight.

gut microbiota = experiment: in vivo remodeling of the gut microbiome (feces 16S rRNA sequencing); parameters: species or system LDLr−/− mice; conditions: for overall microbiota alpha diversity: in vivo, 10-week study, peptide treatment; for time within which the Bacteroidetes/Firmicutes ratio increased relative to the vehicle WD-fed group: oral in drinking water, ~35 mg/kg/day, WD-fed LDLr−/− mice
Description: Animals and diets. LDL receptor-null (LDLr^−/−) mice on a C57BL/6J background were initially purchased from Jackson Laboratories (Bar Harbor, Me.) and were bred in house. Unless otherwise noted, all experiments were performed with 8-12 weeks old LDLr^−/− female mice. For studies involving analysis of the gut microbiome, the mice were rotated between cages and co-housed with the mice from different groups for at least one week before the beginning of each study to reduce the variation in the composition of gut microbiome caused by the housing environment. The mice were weaned at 4 weeks of age and were fed ad libitum a standard chow diet (Harlan Teklad 7019) until they were 10-weeks old, when they were switched to a high-fat diet (WD) containing 15.8% (wt/wt) fat, 1.25% (wt/wt) cholesterol, and no cholate (Harlan Teklad 94059). At the time that the WD was started, the cyclic peptide was added to the drinking water at a dose of 180 μM and the mice (female, n=8 per dosing group) were continued on WD for 10 weeks. The lyophilized peptide was dissolved in PBS (pH 7.4) containing 1% sucrose, resulting in a clear solution. The drinking water solution was replaced with fresh solution daily for c[wLwReQeR] (SEQ ID NO:11) or every other day for c[wLwKhShK] (SEQ ID NO:1). A control group of eight mice (female, n=8) was fed WD and provided vehicle (PBS with 1% sucrose) drinking water. The mice consumed approximately 4.0 mL of water per day per mouse, and there was no significant difference in water or food consumption between groups. All procedures involving live animals were approved by the Scripps Research Institute Institutional Animal Care and Use Committee.
Feces sample collection and DNA extraction. The feces samples were freshly collected after 2, 6, and 10 weeks of treatment, snap-frozen, and stored at −80° C. Microbial genomic DNA was isolated with PowerSoil DNA isolation kit by following manufacturer's instructions (Mo Bio).
16S rRNA gene sequencing and processing. PCR amplicons of the V3-V4 16S rRNA region were amplified and sequenced using an Illumina MiSeq platform. For each sample, duplicate 25 μl PCR reactions were performed, each containing 50 ng of purified DNA, 12.5 μl 2×KAPA HiFi HotStart ReadyMix (Kapa biosystem), and 0.15 μM of each primer designed to amplify the V3-V4 region:
16S rRNA gene sequencing data analysis. We used custom python scripts to demultiplex sequencing reads based on the second barcode index and remove PCR duplication artifacts found using unique molecular identifiers prior to analyzing sequences using MOTHUR (version 1.36.1). […] Briefly, contigs were generated by combining forward and reverse paired-end reads. […] We performed a pre-clustering step to cluster reads up to 2 bp apart and removed all chimeric sequences. […]

Structure (SMILES)	reduction in atherosclerotic lesions, whole aorta lesion area (atherosclerotic lesions) [%]	reduction of aortic sinus lesion volume (atherosclerotic lesions) [%]	levels of fatty acids containing 4-6 carbons, including butyrate ([1]; fecal samples, two-week treatment)	levels of tryptophan and phenylalanine in the feces ([1]; feces, two-week course)	overall microbiota alpha diversity (gut microbiota)	time within which the Bacteroidetes/Firmicutes ratio increased relative to the vehicle WD-fed group (gut microbiota) [weeks]
CC(C)C[C@@H]1NC(=O)[C@@H](Cc2c[nH]c3ccccc23)NC(=O)[C@H](CCCNC(=N)N)NC(=O)[C@@H](CCC(=O)O)NC(=O)[C@H](CCC(N)=O)NC(=O)[C@@H](CCC(=O)O)NC(=O)[C@H](CCCNC(=N)N)NC(=O)[C@@H](Cc2c[nH]c3ccccc23)NC1=O [c[wLwReQeR]] (cyclo([dW]L[dW]R[dE]Q[dE]R))	48	37	increased levels	higher levels	unchanged	≤ 6
CC(C)C[C@@H]1NC(=O)[C@@H](Cc2c[nH]c3ccccc23)NC(=O)[C@H](CCCCN)NC(=O)[C@@H](Cc2c[nH]cn2)NC(=O)[C@H](CO)NC(=O)[C@@H](Cc2c[nH]cn2)NC(=O)[C@H](CCCCN)NC(=O)[C@@H](Cc2c[nH]c3ccccc23)NC1=O [c[wLwKhShK]] (cyclo([dW]L[dW]K[dH]S[dH]K))	37	44	–	–	unchanged	≤ 2
